Laboratory results: the supplement of paper PMC11997997

Experiments:
[1] = tested on: murine bone marrow-derived macrophages; assay: area under cytotoxicity dose-response curve (AUC (% cytotoxicity x dose, relative)); higher = more cytotoxic; conditions: duration: 6 days; dose range: 0.13-80 uM, 8 points
In short: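 Values are the area under the cytotoxicity dose–response curve, calculated with GraphPad Prism version 10. Primary murine bone marrow-derived macrophages were exposed to final concentrations of 80–0.13 μM for 6 days, and viability was read by CellTiter-Glo luminescence with normalisation to vehicle and positive control wells.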

[2] = tested on: Mycobacterium tuberculosis CDC1551 (intracellular, in murine BMDM); assay: area under intracellular growth-inhibition dose-response curve (AUC (% inhibition x dose, relative)); higher = more potent; conditions: duration: 6 days; dose range: 0.13-80 uM, 8 points
In short: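 The value is the area under the growth-inhibition dose–response curve, calculated in GraphPad Prism. Primary murine bone marrow-derived macrophages were seeded in 384-well opaque plates and, 24 h later, infected for 1 h with luciferase-expressing M. tuberculosis CDC1551 at multiplicity of infection 1. Cells were then exposed for 6 days to an 8-dose, 2.5-fold series (final 80–0.13 μM). Growth was read with the Bright-Glo luciferin assay and normalised to a reference drug control and to the lowest-concentration wells.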

Structure (SMILES)	area under cytotoxicity dose-response curve [1]	area under intracellular growth-inhibition dose-response curve [2]
N#Cc1ccc(C(=O)NCC2CCCCC2)cc1	44.2	107
Cc1ccc(NC(=O)NC2CCCCCCC2)cc1C	89	230
CC(C)(C)C1C/C(=C/c2ccccn2)C(=O)/C(=C/c2ccccn2)C1 (configuration not stated)	155	65.4
Cc1nc(N)nc(N)c1/C=C/C(C)(C)c1ccc(Cl)cc1.Cl	5.71	230
Cc1cc(C)c2c(n1)sc1c(N3CCCCC3)ncnc12	73.3	142
O=C(NCc1cccs1)c1ccc(Cl)s1	2.8	212
COc1ccc(NC(=O)C/C(C)=N/NC(=O)c2ccncc2)c([N+](=O)[O-])c1	129	169
CC(C)[C@@H]1CC[C@@H](C)C[C@H]1OC(=O)C[n+]1cc(-c2ccc(Cl)cc2)n2c1CCCCC2.[Cl-]	101	8.38
COc1cc(/C=N/NC(=O)C23CC4CC(CC(C4)C2)C3)cc(Br)c1O	23.8	154
COc1ccc(CNC(=O)c2c(C)nc3ccccn23)cc1	8.66	268
CC(NC(=O)c1ccccc1)c1ccc(F)cc1 (configuration not stated)	< 0	265
CCCC(C)NC(=O)c1ccc(F)cc1 (configuration not stated)	4.45	248
CCCCN(C(=O)c1ccco1)c1c(N)n(CCC)c(=O)[nH]c1=O	53.6	< 0
COc1cc(C(=O)Nc2cc(S(=O)(=O)N3CCOCC3)ccc2N2CCOCC2)ccc1OC(F)F	< 0	44.6
NS(=O)(=O)c1ccc(CCNC(=S)Nc2ccccc2)cc1	< 0	221
O=C(Cc1ccc(Br)cc1)N1CCCC1	< 0	208
CC(=O)O[C@H]1C[C@@]2(C)[C@@H](C[C@@H](O)[C@H]3[C@@]4(C)CC[C@@H](O)[C@@H](C)[C@@H]4CC[C@@]32C)/C1=C(\CCC=C(C)C)C(=O)[O-].[Na+]	74.7	182
O=C(Nc1ccc2c(c1)OCCO2)NC12CC3CC(CC(C3)C1)C2	22.8	136
CCCc1cc(C(=O)NCc2cccs2)no1	< 0	192
Cl.c1ccc(-c2nnc(CN3CCCCC3)o2)cc1	36	267
Cc1ccccc1-n1c(C)cc(/C=N/NC(=O)c2ccncc2)c1C	< 0	214

Structure (SMILES)	area under cytotoxicity dose-response curve [1]	area under intracellular growth-inhibition dose-response curve [2]
O=C(Nc1ccc(N2CCN(C(=O)c3ccccc3)CC2)cc1)c1ccc([N+](=O)[O-])o1	24.1	127
Cc1cccc(NC(=O)NC2CCCCCCC2)c1	95.3	123
O=C(C=Cc1cccc(Cl)c1)c1ccccc1	6.7	252
O=C(N/N=C\c1ccc(Cl)s1)C1COc2ccccc2O1 (configuration not stated)	2.47	129
O=C(Nc1ccc(N2CCN(C(=O)c3ccc(Cl)cc3)CC2)cc1)c1ccc([N+](=O)[O-])o1	34.5	246
Cc1cc(NS(=O)(=O)c2ccc(N)cc2)no1	28.4	57.8
O=C(NNC(=O)C1CCCC1)c1cc([N+](=O)[O-])cc([N+](=O)[O-])c1	12.3	109
CCN1/C(=C\c2ccc3ccccc3[n+]2CC)Sc2cc(C)ccc21.[I-]	175	117
O=C(c1ccc([N+](=O)[O-])o1)N1CCN(c2nc3c(Cl)cccc3s2)CC1	124	18.1
O=C(COc1ccccc1)N/N=C/c1ccc([N+](=O)[O-])o1	14.3	209
COc1cc(/C=N/NC(=O)c2ccncc2)ccc1O	11.1	217
CC1CC(C)CN(C(=O)C2CCC(CNc3c(N4CCCCC4)c(=O)c3=O)CC2)C1 (configuration not stated)	0.615	125
O=C(NC1CCCCC1)c1ccc([N+](=O)[O-])cc1	15.6	218
O=[N+]([O-])c1ccc(N2CCCCC2)s1	14.5	165
N#Cc1ccc(OCC(=O)N2CCN(S(=O)(=O)c3ccc(Cl)s3)CC2)cc1	65.3	31.9
CCCCn1c(N)c(N(CCOC)C(=O)c2oc3ccc(Br)cc3c2C)c(=O)[nH]c1=O	7.25	207
CCOc1ccc(-c2c(C)[n+](-c3ccc(OCC)cc3)c3n2CCCCC3)cc1.[O-][Cl+3]([O-])([O-])[O-]	8.93	57.1
Cc1ccc(OCCOC(=O)c2c(-c3ccccc3)noc2C)cc1	< 0	200
COc1ccc(NC(=O)/C(Cl)=C(/Cl)S(=O)Cc2ccccc2Cl)cn1 (configuration not stated)	140	< 0
O=C(N/N=C/c1ccc(O)c([N+](=O)[O-])c1)c1ccncc1	< 0	256
COc1ccc(/C=C/C(=O)c2ccc([N+](=O)[O-])o2)cc1OC	118	3.95

Structure (SMILES)	area under cytotoxicity dose-response curve [1]	area under intracellular growth-inhibition dose-response curve [2]
COc1cc(/C=N/NC(=O)c2ccncc2)ccc1OCc1cnc(Cl)s1	3.56	219
CCCN=C1C(=O)C2=C(C(O)=C1C)N1CC3NC3[C@@]1(OC)C2COC(N)=O (some centres not stated)	121	166
NC(=S)N/N=C/c1ccc(-c2ccc(Cl)c(Cl)c2)o1	107	219
O=C(OCC(=O)c1ccc(Cl)s1)c1cncc(Br)c1	95.6	0.884
COc1cccc(OCC(=O)NC2CCCCCC2)c1	22.4	266
O=[N+]([O-])c1cc([N+](=O)[O-])c2nonc2c1Nc1ccccc1O	5.05	146
CCn1nc(C(=O)Nc2cccc(S(=O)(=O)N3CCCC3)c2)c2ccccc2c1=O	101	55.2
NC(=S)N/N=C/c1ccc(Br)o1	3.81	246
O=C(NCC1CC1)c1cc([N+](=O)[O-])cc([N+](=O)[O-])c1	36.7	202
CCOc1ccc(-n2cc(-c3ccc(OC)c(OC)c3)nc2S)cc1	81.6	210
Cn1cc(/C=N/NC(N)=S)c2ccccc21	< 0	275
CC1CCc2c(N3CCC(O)CC3)c(F)cc3c(=O)c(C(=O)O)cn1c23 (configuration not stated)	67	162
Cc1cc(C(=O)NC2CCCCCCC2)ccc1[N+](=O)[O-]	< 0	220
CC1CCCN(C(=O)c2ccc(CNc3c(N4CCCCC4)c(=O)c3=O)cc2)C1 (configuration not stated)	23	271
Cc1cc(C(C)(C)C)cc(C)c1C[n+]1c2n(c3ccc(C(F)(F)F)cc31)CCCCC2.[Cl-]	120	138
Cc1cc(NC(=O)c2ccc([N+](=O)[O-])o2)ccc1NC(=O)c1ccco1	88.8	63.8
O=C(Nc1ccc(S(=O)(=O)NC2=NCCCCC2)cc1)c1cccs1	3.27	43.4
CN(C)c1ccc(O)c2c1CC1CC3[C@@H](N(C)C)C(=O)C(C(N)=O)=C(O)[C@]3(O)C(=O)C1=C2O.Cl (some centres not stated)	112	246
Cc1cccc(C)c1-n1c(C)cc(/C=N/NC(=O)c2ccncc2)c1C	32.2	252
